Like-named read-outs stand apart in the source and are kept apart here.
Columns and labels:
[1] = system: HT-22 cells (immortalized hippocampal neurons); assay: HT-22 Cell Neuroprotection Assay (glutamate insult, calcein AM viability); type: cell-based, murine; details: ~16 h
Method: HT-22 cells (immortalized hippocampal neurons of murine origin) were maintained in DMEM media (Life Technologies, Inc., Gaitherburg, MD) supplemented with 10% charcoal-stripped FBS (HyClone Laboratories, Inc., Logan, UT) and 20 µg/mL gentamycin, according to standard culture conditions.
Cells were plated at a density of 5,000 cells/well in clear-bottomed Nunc 96-well plates (Fisher Scientific, Orlando, FL) and allowed to incubate overnight. Steroids dissolved in DMSO were added at concentrations ranging from 0.01-10 µM and were co-administered with glutamate (10 mM or 20 mM). DMSO was used at concentrations of 0.1% vol/vol as a vehicle control and had no discernible effect on cell viability. After ~16 h of glutamate exposure, cells were rinsed with PBS, pH 7.4, and viability was assessed by the addition of 25 µM calcein AM (Molecular Probes, Inc., Eugene, OR) in PBS for 15 min at room temperature. Fluorescence was determined (excitation 485, emission 530) using a fluorescence FL600 microplate reader (Biotek, Winooski, VT). Cells that were lysed by addition of methanol were used for blank readings. All data were normalized to % cell death, as calculated by (control value - insult value)/control value x 100.

[2] = system: cortical neurons; assay: NMDA-induced neuronal cell death in mixed cortical neuron/glial cultures (Trypan blue counting); type: cell-based, mouse
Method: Glial cell cultures: Glial cell cultures were prepared from P1 mice. Briefly, cortex from P1 mice were dissected and digested with 0.025% trypsin for 30-40 min. After trituration, the cells were plated on poly-D-lysine/laminin coated glass-bottom dishes at a density of approximately 5 x 10^6 cells per dish. Cells were grown for 7-10 days in Eagle's minimal essential medium supplemented with 10% fetal bovine serum, 10% horse serum, 10 ng/ml epidermal growth factor, 2 mM glutamine and 20 mM glucose. Cultures were kept at 37°C in a humidified CO2 atmosphere until they reached confluence. Cultures were then used to support neurons (see below).
Cortical neuronal cultures: Cortical neurons were prepared from E15-16 mouse embryos. Dissociated cortical cells (at a density of 5x 10^6 cells per dish) were plated on a layer of confluent glial cells (7-10 days in vitro), into Eagle's minimal essential medium supplemented with 5% fetal bovine serum, 5% horse serum, 2 mM glutamine, and 21 mM glucose. Cultures were kept at 37°C in a humidified 5% CO2 atmosphere. After 3-5 days in vitro, non-neuronal cell division was halted by exposure to 10^-5 M cytosine arabinoside for 2 days, and cultures were shifted to a growth medium identical to the plating medium but lacking […]. Cultures 9-14 days in vitro were used for the experiments.
Neuronal cell death: Mixed neuron/glial cultures were exposure to NMDA (30 µM) for 24 hours in medium stock (MS) (minimal essential medium with 15.8 mM NaHCO3 and 20 mM glucose, pH 7.4) at 37°C. Cell death was assessed […] by counting cells that stained with Trypan blue (0.4% for 10 minutes at 37°C). Stained neurons were counted from three random fields per dish. For the experiments to test the neuroprotective effect of the 17-β-estradiol and the adamantyl-modified analog thereof, cultures were incubated with the drugs for various time periods prior to when NMDA was added to the medium. Results

[3] = 10 mM glutamate co-administered, read-out: Sterioid concentration needed to protect 50% of neurons killed by 10 mM Glutamate ED50
[4] = 20 mM glutamate co-administered, read-out: Sterioid concentration needed to protect 50% of neurons killed by 20 mM Glutamate ED50

CC12CCC3c4cc(C56CC7CC(CC(C7)C5)C6)c(O)cc4CCC3C1CCC2O (stereo not drawn) [ZYC-33, Ent-(17β)-2-(1-Adamantyl)estra-1,3,5(10)-triene-3,17-diol]
EC50 [1, 3]: 65 nM | EC50 [1, 4]: 19 nM

C[C@]12CC[C@@H]3c4cc(C56CC7CC(CC(C7)C5)C6)c(O)cc4CC[C@H]3[C@@H]1CC[C@@H]2O [ZYC-5, (17 β)-2-(1-Adamantyl)-estra-1,3,5(10)-triene-3,17-diol]
protective effect against NMDA-induced neuronal death ([2]; 100 nM dosage, 30 µM NMDA for 24 hours (Figure 5)): 10% | protection from neuronal death due to NMDA exposure ([2]; 1 µM drug, pre-incubation, 30 µM NMDA for 24 hours (Figure 5)): about half | effectiveness relative to 17-β-estradiol ([2]; 1 µM versus 10 µM 17-β-estradiol (one-tenth the dosage)): more than three times more effective | neuronal survival versus pre-incubation time ([2]; 1 µM, 1-12 hours pre-incubation prior to NMDA exposure (Figure 6)): no significant difference | neuronal protection versus pre-incubation time ([2]; 1 µM, 24 hours pre-incubation prior to NMDA exposure (Figure 6)): best protection results

C[C@@]12CC[C@H]3c4ccc(O)cc4CC[C@@H]3[C@H]1CC[C@H]2O (single isomer, unassigned; ent-17) [Ent-(17 β)-Estradiol, ent-17β-estradiol]
EC50 [1, 3]: 1070 nM | EC50 [1, 4]: 1270 nM

Cc1c(O)c(C23CC4CC(CC(C4)C2)C3)cc2c1CC[C@@H]1[C@@H]2CC[C@]2(C)C(=O)CC[C@@H]12 [ZYC-26, 2-(1-admantanyl)-3-hydroxy-4-methylestra-1,3,5(10)-trien-17-one]
melting point: 262 to 263 °C

Cc1c(O)c(C(C)(C)C)cc2c1CC[C@@H]1[C@@H]2CC[C@]2(C)C(=O)CC[C@@H]12 [ZYC-25, 2-(1,1-Dimethylethyl)-3-hydroxy-4-methylestra-1,3,5(10)-trien-17-one]
melting point: 190 to 192 °C

C[C@]12CC[C@@H]3c4ccc(O)cc4CC[C@H]3[C@@H]1CC[C@@H]2O [17-β Estradiol, 17-β-estradiol]
reduction of neuronal loss due to NMDA exposure ([2]; 10 µM drug, pre-incubation, 30 µM NMDA for 24 hours (Figure 5)): about 15% | EC50 [1, 3]: 2210 nM | EC50 [1, 4]: 3010 nM

CC(C)(C)c1cc2c(cc1O)CCC1C2CCC2(C)C(O)CCC12 (stereo not drawn) [ZYC-34, Ent-(17β)-2-(1,1-dimethylethyl)estra-1,3,5(10)-triene-3,17-diol]
EC50 [1, 3]: 240 nM | EC50 [1, 4]: 260 nM

C[C@]12CC[C@@H]3c4ccc(O)cc4CC[C@H]3[C@@H]1CC[C@H]2O [17 α-Estradiol, 17α-estradiol]
EC50 [1, 3]: 3100 nM | EC50 [1, 4]: 16100 nM

— US20060009438A2, “MODIFIED, HYDROXY-SUBSTITUTED AROMATIC STRUCTURES HAVING CYTOPROTECTIVE ACTIVITY” (Washington University, priority 2000, published 2006)
